Experimental data: patent publication US8192962B2, “Processes for detecting toxic substances” (Daikin Industries, Ltd., priority 2001, dated 2012)

Test system: Transport facilitation protein genes
Assay: DNA chip mRNA expression in yeast, transport facilitation protein genes (Table 5)
Format: cell-based, Saccharomyces cerevisiae S288C
In short: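 Whole-genome yeast DNA chip hybridization (65° C., >12 h) of Cy-labeled cDNA from S288C cells exposed 2 h at 25° C. to a sub-lethal toxicant dose in YPD; value is intensity relative to chemical-free control.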

Measured: The level of expressed mRNA in the presence of chemical substance/The level of expressed mRNA in the absence of chemical substance

CCCCC[C@H](O)CC(=O)CCc1ccc(O)c(OC)c1 [(13), gingerol]
1.3: yeast gene YCR037C | yeast gene YDR387C | yeast gene YFL055W | yeast gene YKL016C | yeast gene YKR039W | yeast gene YKR067W | yeast gene YOR270C
1.4: yeast gene YBR132C | yeast gene YCR098C | yeast gene YOL158C
2.6: yeast gene YOR273C
0.7: yeast gene YDR086C | yeast gene YEL027W | yeast gene YHR026W | yeast gene YHR094C
1.7: yeast gene YOL156W
11.8: yeast gene YOR153W
1.8: yeast gene YBR295W | yeast gene YDR039C | yeast gene YDR270W | yeast gene YFL041W | yeast gene YLR092W
1.6: yeast gene YDL128W | yeast gene YER119C | yeast gene YKL221W | yeast gene YLR378C | yeast gene YOL119C | yeast gene YOR316C
0.5: yeast gene YBL030C | yeast gene YCL025C | yeast gene YCR024C-A | yeast gene YGR082W | yeast gene YGR260W | yeast gene YHR092C
2.4: yeast gene YGR197C | yeast gene YNL055C | yeast gene YOL163W
2.5: yeast gene YKR105C | yeast gene YOR035C
2.0: yeast gene YDL198C | yeast gene YDL245C | yeast gene YDR038C | yeast gene YGL104C | yeast gene YHL040C
3.8: yeast gene YHL047C
1.1: yeast gene YHR048W | yeast gene YPL265W
0.8: yeast gene YBR298C | yeast gene YCL069W | yeast gene YDR343C | yeast gene YEL065W | yeast gene YFL011W | yeast gene YGR065C | yeast gene YGR224W | yeast gene YIL006W | yeast gene YJR095W | yeast gene YLR295C | yeast gene YML116W
0.3: yeast gene YPL036W
2.2: yeast gene YBR068C | yeast gene YBR207W | yeast gene YOR332W
3.1: yeast gene YBR294W
1.9: yeast gene YCL038C | yeast gene YGL008C | yeast gene YGR055W | yeast gene YLR348C
1.2: yeast gene YDL210W | yeast gene YDR298C | yeast gene YDR345C | yeast gene YFL050C | yeast gene YHR175W | yeast gene YIL022W | yeast gene YKL188C | yeast gene YKL217W | yeast gene YPL271W
2.3: yeast gene YFL054C
0.9: yeast gene YBL099W | yeast gene YBR127C | yeast gene YJR077C | yeast gene YMR162C
1.0: yeast gene YBR291C | yeast gene YGR191W | yeast gene YJL212C | yeast gene YJR121W | yeast gene YPL134C | yeast gene YPR194C
2.1: yeast gene YBR052C | yeast gene YOR130C
1.5: yeast gene YGL167C | yeast gene YHL036W | yeast gene YIL056W | yeast gene YIL088C | yeast gene YLL055W | yeast gene YNR072W
3.0: yeast gene YBR293W
0.6: yeast gene YDR342C | yeast gene YGR138C | yeast gene YLR081W | yeast gene YPR124W
